Measured values as given in US9707281B2, “Pharmaceutical compositions and methods for digesting atherosclerotic plaques” (Northwestern University, priority 2010, dated 2017).

System: Human arterial plaque samples
Experiment: in vitro dissolution and digestion of atherosclerotic plaque specimens (percent reduction of plaque weight)
Conditions: EDTA 0.5-2 mg/ml, β-cyclodextrin 1-100 mMol, tPA 0.5-2 mg/ml, p<0.05
Protocol: Atherosclerotic plaques from surgical endarterectomies were obtained from various anatomic sites. All experiments were performed by cutting a given plaque into equal parts by weight then exposing them to various agents alone and in combination to determine the most optimal digestion solution. The optimal concentration and conditions for plaque dissolution and digestion were determined for ethylenediaminetetraacetic acid (EDTA), β-cyclodextrin, tPA, collagenase type I, III, IV, and V. Weights of each specimen were obtained prior to exposure of each solution and at different time points to determine percent of digested versus undigested plaque. Additional variables that were assessed and optimized include: 1) different combinations of EDTA, β-cyclodextrin, and the collagenases, 2) temperature, 3) pH, and 4) agitation.
Atherosclerotic plaques were obtained from patients undergoing endarterectomies. The optimal concentration and conditions for plaque dissolution and digestion were determined for ethylenediaminetetraacetic acid (EDTA), β-cyclodextrin, and collagenase type I, III, IV, and V. Variables that were assessed included: 1) combination of different agents, 2) time, 3) temperature, 4) pH, and 5) agitation. Weight of each specimen was measured at different time points to determine percent of undigested plaque. […]

SMILES	reduction in plaque weight, agent alone [%]
O=C(O)CN(CCN(CC(=O)O)CC(=O)O)CC(=O)O [EDTA, ethylenediaminetetraacetic acid]	15
OC[C@H]1O[C@@H]2O[C@H]3[C@H](O)[C@@H](O)[C@@H](O[C@H]4[C@H](O)[C@@H](O)[C@@H](O[C@H]5[C@H](O)[C@@H](O)[C@@H](O[C@H]6[C@H](O)[C@@H](O)[C@@H](O[C@H]7[C@H](O)[C@@H](O)[C@@H](O[C@H]8[C@H](O)[C@@H](O)[C@@H](O[C@H]1[C@H](O)[C@H]2O)O[C@@H]8CO)O[C@@H]7CO)O[C@@H]6CO)O[C@@H]5CO)O[C@@H]4CO)O[C@@H]3CO [β-cyclodextrin]	2
